Assay results as given in patent US10265275B2, “Phenolic coatings and methods of making and using same” (Northwestern University, priority 2013, dated 2019).
Like-named read-outs stand apart in the source and are kept apart here.

Test: Potentiometric titration, first pKa
Assay type: physicochemical
Description: In order to investigate the relationship between coating pH and deprotonation, coating precursor molecules were studied via potentiometric titrations. A solution of tannic acid was made by dissolving ˜1 mg in 2 mL of 100 mM KCl in a glass test tube to perform the titration. The TA and KOH solutions were degassed by aggressively sparging argon for no less than 30 min. Base was titrated in 1.0 μL increments, and the total amount added was 250 μL. If oxygen is purged correctly, the phenolic solution should display little or no change in color throughout the titration. The first pKa was calculated by initially plotting the volume of base added versus pH. The first derivative of this curve was then plotted as a function of pH, and the pKa was calculated by determining the pH associated with any local maxima.

[1] = first pKa minus optimal coating pH
[2] = aqueous 100 mM KCl solution, 100 mM KCl, degassed, KOH titration, read-out: First pKa

Compound | First pKa (100 mM KCl, degassed, KOH titration) | pKa − pH [1] | pKa | pKa − pH | pKa [2]
epigallocatechin-3-gallate [EGCG] | 8.1 | 1.1 |  |  | 
O=C(OC[C@H]1O[C@@H](OC(=O)c2cc(O)c(O)c(OC(=O)c3cc(O)c(O)c(O)c3)c2)[C@H](OC(=O)c2cc(O)c(O)c(OC(=O)c3cc(O)c(O)c(O)c3)c2)[C@@H](OC(=O)c2cc(O)c(O)c(OC(=O)c3cc(O)c(O)c(O)c3)c2)[C@@H]1OC(=O)c1cc(O)c(O)c(OC(=O)c2cc(O)c(O)c(O)c2)c1)c1cc(O)c(O)c(OC(=O)c2cc(O)c(O)c(O)c2)c1 [Tannic acid, tannic acid] |  |  | 7.7 | 0.7 | 
Oc1cccc(O)c1O [PG, 1,2,3-trihydroxybenzene] |  |  |  | 2.3 | 9.3
Oc1ccccc1O [Catechol, catechol] |  | 1.5 |  |  | 9.5
Oc1ccc(O)c(O)c1 [HHQ, hydroxyhydroquinone] |  |  | 9.1 | 3.1 | 
